The text below walks through data of ChEMBL document CHEMBL1152205, “Dihydropyrazolopyrimidine inhibitors of K(V)1.5 (I(Kur))” (Bioorg Med Chem Lett, 2008).

The target in series [1] is T1, Potassium voltage-gated channel subfamily A member 5 (Homo sapiens, UniProt P22460). Description: Inhibition of human Kv1.5 channel expressed in mouse L929 cells by EP voltage clamp technique. Format: cell-based.
For series [2], the target named is T1, Potassium voltage-gated channel subfamily A member 5. Description: Inhibition of human Kv1.5 channel expressed in Xenopus oocytes at 3 uM by EP voltage clamp technique. The series is classed as cell-based. The following applies: Oocyte.
Series [3] concerns the target hERG (KCNH2) (Homo sapiens, UniProt Q12809). Description: Inhibition of human ERG at 10 uM.
Series [4] can be described thus: Inhibition of sodium channel INa at 10 uM by patch clamp technique. In general terms: In patch-clamp work, channel activity is measured electrically.
Series [5] can be described thus: Inhibition of L-type calcium channel ICa at 10 uM.
A short description of series [6]: Inhibition of potassium channel IKs at 10 uM.
The nature of series [7]: Inhibition of potassium channel IK1 at 10 uM.
Series [8] is filed under the species Homo sapiens. Description: Selectivity of human Kv1.5 channel over human ERG.
Series [9] can be described thus: Selectivity of human Kv1.5 channel over sodium channel INa.
Series [10] in a line: Selectivity of human Kv1.5 channel over L-type calcium channel ICa.
The nature of series [11]: Selectivity of human Kv1.5 channel over potassium channel IKs.
Series [12] in a line: Selectivity of human Kv1.5 channel over potassium channel IK1.
Series [13] concerns the target T1, Potassium voltage-gated channel subfamily A member 5. Description: Inhibition of human Kv1.5 channel expressed in mouse L929 cells at 1 uM by EP voltage clamp technique. Format: cell-based.

T1 sequence (P22460 whole entry): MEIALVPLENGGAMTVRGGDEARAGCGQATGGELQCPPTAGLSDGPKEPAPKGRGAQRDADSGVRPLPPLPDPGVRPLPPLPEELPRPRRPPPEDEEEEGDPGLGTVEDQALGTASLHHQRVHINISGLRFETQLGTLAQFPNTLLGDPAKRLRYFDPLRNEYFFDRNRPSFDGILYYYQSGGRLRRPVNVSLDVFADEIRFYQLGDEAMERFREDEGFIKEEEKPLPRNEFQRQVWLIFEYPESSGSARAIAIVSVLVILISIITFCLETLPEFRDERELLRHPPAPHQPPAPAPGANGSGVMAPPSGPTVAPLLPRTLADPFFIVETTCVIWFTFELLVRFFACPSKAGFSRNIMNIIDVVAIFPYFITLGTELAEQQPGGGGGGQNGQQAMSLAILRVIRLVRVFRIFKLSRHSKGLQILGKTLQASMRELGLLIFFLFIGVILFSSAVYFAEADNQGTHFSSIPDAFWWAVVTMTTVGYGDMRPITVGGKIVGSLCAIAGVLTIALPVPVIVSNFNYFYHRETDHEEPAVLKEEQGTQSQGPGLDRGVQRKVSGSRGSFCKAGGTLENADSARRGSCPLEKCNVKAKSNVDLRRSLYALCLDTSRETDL
Chain of hERG (KCNH2) (Q12809 whole entry): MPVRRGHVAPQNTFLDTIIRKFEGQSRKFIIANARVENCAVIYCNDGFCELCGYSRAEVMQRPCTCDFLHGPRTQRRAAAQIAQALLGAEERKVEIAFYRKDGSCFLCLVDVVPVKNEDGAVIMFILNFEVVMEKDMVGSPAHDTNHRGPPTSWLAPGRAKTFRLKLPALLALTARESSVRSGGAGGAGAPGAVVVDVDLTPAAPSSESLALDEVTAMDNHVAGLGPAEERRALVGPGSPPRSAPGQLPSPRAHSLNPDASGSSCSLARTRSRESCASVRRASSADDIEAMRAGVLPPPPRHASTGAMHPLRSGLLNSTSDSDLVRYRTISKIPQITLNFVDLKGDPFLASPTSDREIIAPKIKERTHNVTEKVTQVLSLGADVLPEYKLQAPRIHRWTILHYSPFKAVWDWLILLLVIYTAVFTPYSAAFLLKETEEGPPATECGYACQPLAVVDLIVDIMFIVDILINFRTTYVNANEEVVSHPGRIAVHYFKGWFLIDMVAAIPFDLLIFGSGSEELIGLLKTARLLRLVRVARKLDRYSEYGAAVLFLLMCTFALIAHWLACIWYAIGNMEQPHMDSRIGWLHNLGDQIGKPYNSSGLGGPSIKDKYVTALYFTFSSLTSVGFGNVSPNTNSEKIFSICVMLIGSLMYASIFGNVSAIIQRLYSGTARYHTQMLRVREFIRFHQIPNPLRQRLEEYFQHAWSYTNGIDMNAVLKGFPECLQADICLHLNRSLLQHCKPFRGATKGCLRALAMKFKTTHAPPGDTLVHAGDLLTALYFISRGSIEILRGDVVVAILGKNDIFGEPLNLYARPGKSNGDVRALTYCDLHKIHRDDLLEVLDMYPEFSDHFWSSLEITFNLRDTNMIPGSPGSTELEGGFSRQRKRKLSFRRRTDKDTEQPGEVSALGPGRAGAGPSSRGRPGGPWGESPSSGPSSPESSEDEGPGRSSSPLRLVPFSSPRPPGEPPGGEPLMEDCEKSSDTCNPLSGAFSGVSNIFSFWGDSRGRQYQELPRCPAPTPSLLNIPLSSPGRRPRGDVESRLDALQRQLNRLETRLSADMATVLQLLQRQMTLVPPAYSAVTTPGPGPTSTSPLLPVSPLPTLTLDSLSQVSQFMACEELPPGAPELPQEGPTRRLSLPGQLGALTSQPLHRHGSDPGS

Take `CC1=C(C(=O)N2CCN(c3ccc(F)cc3)CC2)[C@@H](c2ccc(Cl)c(Cl)c2)n2nccc2N1`: in [1], it took 0.07 µM to reach half-maximal inhibition (IC50). The inhibition in series [2] came to 72%; in series [4], 42%; in [5], 59%; in series [6], 21%; in series [7], 3%. The compound further yielded an inhibition at 10 µM in series [3] of 69%. For the same compound, the fold change (FC) in series [8], in series [9], in series [10], in series [11] and in [12] was more than 50 throughout.

In turn, `CC1=C(C(=O)N2CCN(c3ccc(F)cc3)CC2)[C@@H](c2cccc(Cl)c2Cl)n2nccc2N1` returned an IC50 in series [1] of 0.16 µM. Further, the inhibition was 67% in series [2]; 14% in [4]; 55% in series [5]; 7% in series [6]; 1% in series [7]. The inhibition at 10 µM in [3] was determined as 41%. Besides, the fold change (FC) in [8], in series [9], in [10], in [11] and in series [12] was more than 50 in each case.

Take `CC1=C(C(=O)N2CCN(c3ccc(F)cc3)CC2)C(c2ccccc2C)n2nccc2N1` (stereo unspecified): the inhibition was determined as 37% in series [2] and 48% in series [13].

Broadly, the IC50 is the concentration that inhibits the measured activity by half. Higher therefore signals weaker potency in that assay. A word on the inhibition: it is how much of the control response was suppressed.
